Laboratory results taken from patent US8088775B2, “Pharmaceutical composition for treating hair loss” (priority 2004, dated 2012).
Where “and” joins values, the source holds several entries; their conditions need not be identical. Equal values may be shown once. Where a name gives a salt, the structure may show the parent alone. Read-outs that look alike come from different tables or passages of the source.

What was measured:
[1] = tested on: prostate glands of castrated male SD rats; assay: Anti-androgenic active effects in castrated male SD rats: weight of prostate glands after TP or DHTP inducement; assay type: in vivo; settings: for Average weight of prostate glands, prostatic hyperplasia inducement group: hormone alone hypodermic (TP 10 μg or DHTP 20 μg) + vehicle oral; for Average weight of prostate glands, prostatic hyperplasia inducement group / Average weight of prostate glands: one week, solvent control 23.3±1.5 mg; for Weight of prostate glands after inducement with DHTP / Size of prostate glands enlarged by inducement with TP: one week oral
Procedure: In-Vivo Experiment for the Observation of Anti-Androgenic Active Effects of Castrated Male SD Rats (1)
(§1) Each compound is administered orally continuously for one week according to the method of administration shown in Table 1, prostate glands are removed from the rats in each group while watching, and their weights are measured.

[2] = Body weight of castrated male SD rats after one week; settings: hormone alone (TP 10 μg or DHTP 20 μg) + vehicle oral, solvent control 122.1
Procedure: as §1

[3] = tested on: hair loss; settings: external application; cited from earlier work
[4] = tested on: hair loss; settings: for Degree of efficacy: 10-20% (number of persons) / Degree of efficacy: 20-40% (number of persons) / Degree of efficacy: 40-60% (number of persons) / Degree of efficacy: 60-80% (number of persons) / Degree of efficacy: Greater than 90% (number of persons) / Degree of efficacy: No effect (number of persons) / Time taken for the efficacy to be shown: 3-5 days (number of persons) / Time taken for the efficacy to be shown: 7 days (number of persons) / Time taken for the efficacy to be shown: 14 days (number of persons) / Time taken for the efficacy to be shown: 21 days (number of persons) / Time taken for the efficacy to be shown: 28 days (number of persons) / Time taken for the efficacy to be shown: Minor effect (number of persons): Example 3 primary specimens, extruded material, 10 mg effective component once a day
Description: Clinical Experiment to Study Effects for the Prevention of Hair Loss, and for Hair Toning and Hair Growth (1)
The extruded material thus obtained is dried in the floating air layer. The therapeutical efficacy for the prevention of hair loss is experimented clinically by using thus obtained extruded material as shown in Tables 6 and 7. The objects of clinical experiments are selected based on 35 male and female healthy adults older than 20 years old who suffer from symptoms of hair loss. The therapeutical efficacy of female hair loss is also tested as females suffering from hair loss are included in the specimen population (including 5 males in the placebo control group).

[5] = tested on: hairs; settings: Example 6; tablets 10 mg once a day for six months; FIG. 5A/5B
Description: Clinical Experiments to Study Effects of Epilation
The effects of epilation are investigated by administering the tablets thus manufactured once a day.

[6] = tested on: hair loss; settings: for Degree of efficacy: 10-20% (number of persons) / Degree of efficacy: 20-40% (number of persons) / Degree of efficacy: 40-60% (number of persons) / Degree of efficacy: 60-80% (number of persons) / Degree of efficacy: Greater than 90% (number of persons) / Degree of efficacy: No effect (number of persons) / Time taken for the efficacy to be shown: 3-5 days (number of persons) / Time taken for the efficacy to be shown: 7 days (number of persons) / Time taken for the efficacy to be shown: 14 days (number of persons) / Time taken for the efficacy to be shown: 21 days (number of persons) / Time taken for the efficacy to be shown: 28 days (number of persons) / Time taken for the efficacy to be shown: Minor effect (number of persons): Example 5 tertiary specimens, tablets three times a day (30 mg=3×10 mg)
Procedure: Clinical Experiment to Study Effects for the Prevention of Hair Loss, and for Hair Toning and Hair Growth (3)
The effects for the prevention of hair loss are investigated by administering the tablets thus manufactured to 5 healthy adult males who are older than 20 years old and selected to be specimens three times a day (30 mg=3×10 mg).

[7] = tested on: hair loss
Description: Clinical Experiment to Study Effects for the Prevention of Hair Loss, and for Hair Toning and Hair Growth (2)
The effect for the prevention of hair loss is investigated by administering the tablets thus manufactured to 20 healthy adult males who are older than 20 years old and selected to be specimens (including 5 males in the placaebo control group) once a day.

[8] = tested on: prostate glands of normal male SD rats; assay: Anti-androgenic effects in normal male SD rats: weight of prostate glands after 2 weeks; assay type: in vivo; settings: oral; for Average weight of prostate glands: normal 8-week-old male SD rats, solvent control 333.8; for Weight of prostate glands versus solvent control group: normal male SD rats
Description: In-Vivo Experiment for the Observation of Anti-Androgenic Effects of Normal Male SD Rats (2)
After the experiments are completed, the changes in the weight of prostate glands removed from normal SD rats and the changes in the weight of normal SD rats measured are shown in Tables 4 and 5 and diagrammatized in FIGS. 3 and 4.

[9] = Example 3, 10 mg once a day, no effects with placebo
[10] = Example 4 secondary specimens, Total, tablets, 10 mg effective component once a day

CCC(=O)O[C@H]1CC[C@H]2[C@@H]3CC[C@H]4CC(=O)CC[C@]4(C)[C@H]3CC[C@]12C [DHTP, dihydrotestosterone propionate]
Average weight of prostate glands, prostatic hyperplasia inducement group [1]: 58.4 ± 2.0 mg and 58.4 mg | Average body weight, inducement group [2]: 118.7

Nc1cc(N2CCCCC2)nc(N)[n+]1[O-] [Minoxidil, 6-(1-piperidinyl-2,4-pyrimidineamine-3-oxide)]
Reported side effects [3]: contact dermatitis, dried mouth, lowering of blood pressure, dizziness

CCC(=O)O[C@H]1CC[C@H]2[C@@H]3CCC4=CC(=O)CC[C@]4(C)[C@H]3CC[C@]12C [TP, testosterone propionate]
Average weight of prostate glands, prostatic hyperplasia inducement group [1]: 63.6 ± 3.2 mg and 63.6 mg

O=C(O)COCCN1CCN(C(c2ccccc2)c2ccc(Cl)cc2)CC1 (centres unmarked) [composition of the present invention, 2-[2-[4-[(4-chlorophenyl)phenylmethyl]-1-piperazinyl]ethoxy]-acetic acid dihydrochloride]
Effect of prevention of hair loss, time course [4, 9]: hair loss is prevented in almost all specimens in about three weeks | Effects of the prevention of hair loss in males and females [4, 9]: remarkable effects of the prevention of hair loss are observed both in males and females | Degree of efficacy: 10-20% (number of persons) ([4]; Female (10)): 0 | Degree of efficacy: 20-40% (number of persons) ([4]; Female (10)): 0 | Degree of efficacy: 40-60% (number of persons) ([4]; Female (10)): 3 | Degree of efficacy: 60-80% (number of persons) ([4]; Female (10)): 6 | Degree of efficacy: Greater than 90% (number of persons) ([4]; Female (10)): 0 | Degree of efficacy: No effect (number of persons) ([4]; Female (10)): 1 | Time taken for the efficacy to be shown: 3-5 days (number of persons) ([4]; Female (10)): 0 | Time taken for the efficacy to be shown: 7 days (number of persons) ([4]; Female (10)): 1 | Time taken for the efficacy to be shown: 14 days (number of persons) ([4]; Female (10)): 6 | Time taken for the efficacy to be shown: 21 days (number of persons) ([4]; Female (10)): 2 | Time taken for the efficacy to be shown: 28 days (number of persons) ([4]; Female (10)): 0 | Time taken for the efficacy to be shown: Minor effect (number of persons) ([4]; Female (10)): 1 | Degree of efficacy: 10-20% (number of persons) ([4]; Male (20)): 0 | Degree of efficacy: 20-40% (number of persons) ([4]; Male (20)): 0 | Degree of efficacy: 40-60% (number of persons) ([4]; Male (20)): 6 | Degree of efficacy: 60-80% (number of persons) ([4]; Male (20)): 13 | Degree of efficacy: Greater than 90% (number of persons) ([4]; Male (20)): 1 | Degree of efficacy: No effect (number of persons) ([4]; Male (20)): 0 | Time taken for the efficacy to be shown: 3-5 days (number of persons) ([4]; Male (20)): 0 | Time taken for the efficacy to be shown: 7 days (number of persons) ([4]; Male (20)): 6 | Time taken for the efficacy to be shown: 14 days (number of persons) ([4]; Male (20)): 11 | Time taken for the efficacy to be shown: 21 days (number of persons) ([4]; Male (20)): 3 | Time taken for the efficacy to be shown: 28 days (number of persons) ([4]; Male (20)): 0 | Time taken for the efficacy to be shown: Minor effect (number of persons) ([4]; Male (20)): 0 | Degree of efficacy: 10-20% (number of persons) ([4]; Total): 0 | Degree of efficacy: 20-40% (number of persons) ([4]; Total): 0 | Degree of efficacy: 40-60% (number of persons) ([4]; Total): 9 | Degree of efficacy: 60-80% (number of persons) ([4]; Total): 19 | Degree of efficacy: Greater than 90% (number of persons) ([4]; Total): 1 | Degree of efficacy: No effect (number of persons) ([4]; Total): 1 | Time taken for the efficacy to be shown: 3-5 days (number of persons) ([4]; Total): 0 | Time taken for the efficacy to be shown: 7 days (number of persons) ([4]; Total): 7 | Time taken for the efficacy to be shown: 14 days (number of persons) ([4]; Total): 17 | Time taken for the efficacy to be shown: 21 days (number of persons) ([4]; Total): 5 | Time taken for the efficacy to be shown: 28 days (number of persons) ([4]; Total): 0 | Time taken for the efficacy to be shown: Minor effect (number of persons) ([4]; Total): 1 | Average weight of prostate glands ([1]; DHTP 20 μg hypodermic + drug oral daily (finasteride 0.5 mg, composition 5 mg), dihydrochloride): 52.2 ± 1.1 mg and 52.2 mg | Weight of prostate glands after inducement with DHTP [1]: not greatly affected | Average weight of prostate glands ([1]; TP 10 μg hypodermic + drug oral daily (finasteride 0.5 mg, composition 5 mg), dihydrochloride): 25.1 mg | Size of prostate glands enlarged by inducement with TP [1]: reduced to the normal size | Effects of epilation (photograph, naked eyes) [5]: considerable effects of epilation | Color and thickness of newly produced hairs ([6]; Example 5, tablets 30 mg a day): much stronger than those of old hairs | Effects for the prevention of hair loss ([6]; Example 5, tablets 30 mg a day, 5 people): superior within one week in all of 5 people | Degree of efficacy: 10-20% (number of persons) ([6]; Male (5)): 0 | Degree of efficacy: 20-40% (number of persons) ([6]; Male (5)): 0 | Degree of efficacy: 40-60% (number of persons) ([6]; Male (5)): 0 | Degree of efficacy: 60-80% (number of persons) ([6]; Male (5)): 2 | Degree of efficacy: Greater than 90% (number of persons) ([6]; Male (5)): 3 | Degree of efficacy: No effect (number of persons) ([6]; Male (5)): 0 | Time taken for the efficacy to be shown: 3-5 days (number of persons) ([6]; Male (5)): 0 | Time taken for the efficacy to be shown: 7 days (number of persons) ([6]; Male (5)): 5 | Time taken for the efficacy to be shown: 14 days (number of persons) ([6]; Male (5)): 0 | Time taken for the efficacy to be shown: 21 days (number of persons) ([6]; Male (5)): 0 | Time taken for the efficacy to be shown: 28 days (number of persons) ([6]; Male (5)): 0 | Time taken for the efficacy to be shown: Minor effect (number of persons) ([6]; Male (5)): 0 | Degree of efficacy: 10-20% (number of persons) ([6]; Total (5)): 0 | Degree of efficacy: 20-40% (number of persons) ([6]; Total (5)): 0 | Degree of efficacy: 40-60% (number of persons) ([6]; Total (5)): 0 | Degree of efficacy: 60-80% (number of persons) ([6]; Total (5)): 2 | Degree of efficacy: Greater than 90% (number of persons) ([6]; Total (5)): 3 | Degree of efficacy: No effect (number of persons) ([6]; Total (5)): 0 | Time taken for the efficacy to be shown: 3-5 days (number of persons) ([6]; Total (5)): 0 | Time taken for the efficacy to be shown: 7 days (number of persons) ([6]; Total (5)): 5 | Time taken for the efficacy to be shown: 14 days (number of persons) ([6]; Total (5)): 0 | Time taken for the efficacy to be shown: 21 days (number of persons) ([6]; Total (5)): 0 | Time taken for the efficacy to be shown: 28 days (number of persons) ([6]; Total (5)): 0 | Time taken for the efficacy to be shown: Minor effect (number of persons) ([6]; Total (5)): 0 | Color and thickness of newly coming out hairs ([7]; Example 4, tablets 10 mg once a day): much stronger than those of old hairs | Effects for the prevention of hair loss ([7]; Example 4, tablets 10 mg once a day, 15 people, no effects with placebo): superior within three weeks in all of 15 people | Degree of efficacy: 10-20% (number of persons) [7, 10]: 0 | Degree of efficacy: 20-40% (number of persons) [7, 10]: 0 | Degree of efficacy: 40-60% (number of persons) [7, 10]: 5 | Degree of efficacy: 60-80% (number of persons) [7, 10]: 9 | Degree of efficacy: Greater than 90% (number of persons) [7, 10]: 1 | Degree of efficacy: No effect (number of persons) [7, 10]: 0 | Time taken for the efficacy to be shown: 3-5 days (number of persons) [7, 10]: 0 | Time taken for the efficacy to be shown: 7 days (number of persons) [7, 10]: 1 | Time taken for the efficacy to be shown: 14 days (number of persons) [7, 10]: 6 | Time taken for the efficacy to be shown: 21 days (number of persons) [7, 10]: 8 | Time taken for the efficacy to be shown: 28 days (number of persons) [7, 10]: 0 | Time taken for the efficacy to be shown: Minor effect (number of persons) [7, 10]: 0 | Average weight of prostate glands [8]: 226.7 mg | Weight of prostate glands versus solvent control group [8]: significantly lower

CC(C)(C)NC(=O)[C@H]1CC[C@H]2[C@@H]3CC[C@H]4NC(=O)C=C[C@]4(C)[C@H]3CC[C@]12C [finasteride]
Average weight of prostate glands ([1]; DHTP 20 μg hypodermic + drug oral daily (finasteride 0.5 mg, composition 5 mg)): 53.1 ± 1.4 mg and 53.1 mg | Weight of prostate glands after inducement with DHTP [1]: not greatly affected | Average weight of prostate glands ([1]; TP 10 μg hypodermic + drug oral daily (finasteride 0.5 mg, composition 5 mg)): 24.5 ± 1.6 mg and 24.5 mg | Size of prostate glands enlarged by inducement with TP [1]: reduced to the normal size | Average weight of prostate glands [8]: 220.0 mg | Weight of prostate glands versus solvent control group [8]: significantly lower
